Test results reported in patent US20060205938A1, “Monohydrate solvates of loracarbef” (priority 2002, published 2006).

Key:
[1] = Bulk density of crystalline loracarbef monohydrate; type: physicochemical
[2] = fine, fluffy powder obtained by the process disclosed in EP 0,369,686; cited from earlier work

bulk density ([1]; crystalline monohydrate prepared from mono N,N-dimethylacetamide monohydrate solvate (Example 2)): greater than 0.6 g/ml | bulk density ([1]; crystalline monohydrate prepared from mono N-methyl pyrrolidone monohydrate solvate (Example 4)): greater than 0.6 g/ml | bulk density ([1]; monohydrate prepared from mono N,N-dimethylacetamide monohydrate solvate or mono N-methylpyrrolidone monohydrate solvate): ≥ 0.6 g/mL
Structure (SMILES): N[C@@H](C(=O)N[C@@H]1C(=O)N2C(C(=O)O)=C(Cl)CC[C@H]12)c1ccccc1.O [crystalline loracarbef monohydrate, (6R,7S)-7-[(R)-2-amino-2-phenylacetamido]-3-chloro-8-oxo-1-azabicyclo [4.2.0]oct-2-ene-carboxylic acid, monohydrate]
density [2]: approximately 0.2 g/ml
